Test results from patent publication US20050009858A1, “Imiquimod therapies” (priority 2001, published 2005).
Entries after “also recorded” stand apart in the source; their conditions may differ. Where two headings read alike, the source gives them in different places.

Tests used:
[1] = tested on: polyoma virus-induced hemangioendothelioma; details: topical imiquimod; cited from earlier work
IFN-α and TNF-α [2] = details: nude mice; topical 1 and 5% cream; cited from earlier work
[3] = tested on: cytokines including IL-2 and IFN-γ; details: as a result of IL-12 production; cited from earlier work
[4] = tested on: infantile hemangioma (IH); assay: Clinical cases: topical 5% imiquimod cream in 4 patients with infantile hemangioma; type: in vivo, human
Excerpt: The option of topical 5% imiquimod cream at a frequency of three times per week was offered to the parents of 4 patients with IH. In each case this treatment option was found acceptable by both parents, who fully understood that this was an off label use of the medication.
A child presented for consultation with an IH on the frontal scalp (3.0×2.5 cm) that was noticed and enlarged rapidly.
A child presented with a red-grey bulbous, 4.5 cm in diameter IH on the frontal scalp that appeared and grew rapidly. MRI analysis supported the clinical diagnosis of IH. […] The medication at the parent's request was discontinued. […] Imiquimod was restarted and increased to every other day for 6 weeks. […] Therapy was discontinued.
A healthy infant was born with a small reddish, flat IH over the left lower lip that started to grow rapidly. Imiquimod, 5%, cream was applied every other day to the outer lip area only. […] The patient is […] and continues the treatment.
An infant was born with a IH on the right upper eyelid that grew rapidly during their first few months life. An MRI study excluded any involvement of any underling ocular structure. Topical application of imiquimod 5% cream was applied every other day for one month over the entire IH.

[5] = tested on: epithelioid hemangioendothelioma (EH); assay: Clinical case: 5% imiquimod topical cream in a patient with epithelioid hemangioendothelioma; type: in vivo, human
Excerpt: EH is a low grade malignant vascular tumor that occurs most commonly in the superficial or deep soft tissues of the body. The patient refused surgery for personal reasons, but acquiesced to the use of 5% imiquimod cream, even though such usage was off label.
A patient developed a nodule on the left cheek that started to grow over the period of 6 months. […] However, they were willing to apply 5% imiquimod topical cream after they were informed of the success of this agent in treatment of some skin cancers and hemangiomas.

IFN-α and TNF-α [6] = details: rats; topical 1 and 5% cream; cited from earlier work
[7] = tested on: Lichen Sclerosus (LS) lesions; assay: Clinical case: topical imiquimod 5% cream in a patient with penile Lichen Sclerosus; type: in vivo, human; details: person; for Side effects / local reaction at treated areas: imiquimod 5% cream every other day, reaction after 2 weeks; for Disappearance of LS lesions: imiquimod 5% cream topically every other day for 2 weeks, assessed two weeks after stopping
Excerpt: A person presented to our office (MIM) with the main complaint of whitish patches on the penis of 2 months duration associated with occasional pruritus. […] Because of its immunomodulatory effects, treatment of the LS lesions with imiquimod 5% cream was offered to the patient. It was clearly explained to them that this was an off label use of the medication. They began topical application to the affected areas every other day.

CC(C)Cn1cnc2c(N)nc3ccccc3c21 [imiquimod]
Apoptosis [1]: increased apoptosis | Intratumoral mast cells [1]: increased intratumoral mast cells | TNF-α level [1]: elevated levels | Tissue inhibitor of metalloproteinases type 1 (TIMP-1) level [1]: elevated levels | IFN-α (IFN-α and TNF-α [2]): local increase | TNF-α (IFN-α and TNF-α [2]): local increase | Cytokine production [3]: production of other cytokines including IL-2 and IFN-γ | IH lesion response ([4]; Case 1: frontal scalp IH 3.0×2.5 cm, after 4 weeks of thrice weekly application): less protuberant | Side effects ([4]; Case 1, after 4 weeks of thrice weekly application): marked erythema and crusting | IH lesion response ([4]; Case 1, after therapy discontinued for 2 weeks): marked reduction in the size of the IH | Side effects ([4]; Case 1, application every other day for 2 weeks): reappearance of inflammation and crusting | IH lesion response ([4]; Case 1, follow-up 4 weeks after end of therapy): virtually complete clinical regression of the IH with return to normal skin color | Recurrence at follow-up ([4]; Case 1, most recent follow-up): no recurrence of the lesion | Side effects ([4]; Case 2: frontal scalp IH 4.5 cm, after 3 weeks of 3 times weekly): marked crusting and erythema | IH lesion response ([4]; Case 2, four weeks after the 6 week course): near complete regression of the lesion | IH lesion at last follow-up ([4]; Case 2, last follow-up): the lesion had completely disappeared | Side effects ([4]; Case 2, restarted, every other day for 6 weeks): recurrence of erythema and crusting | IH lesion course after discontinuation ([4]; Case 2, two months after medication discontinued): rapid regrowth of the lesion | Side effects ([4]; Case 3: IH left lower lip, 5% cream every other day to outer lip area, after 2 weeks): marked inflammation and crusting over the lip area | IH lesion response, untreated area ([4]; Case 3, inner buccal mucosa (untreated)): persisted but had also decreased in size | IH lesion response, treated area ([4]; Case 3, outer lip area, after one and a half months of therapy): most of the IH over the outer lip area had regressed | Side effects ([4]; Case 4: IH right upper eyelid, 5% cream every other day): Erythema and crusting developed in two weeks | IH lesion response ([4]; Case 4, after one month of application every other day): regressed almost to the skin level | Neurologic examination ([4]; all patients of the report): none showed any adverse effects | Outcome of IH lesions ([4]; the other two patients, treatment continuing): continue to respond dramatically to treatment | Outcome of IH lesions ([4]; the two patients who completed therapy, at least one year of follow up): complete disappearance of their lesions with no recurrence at least at one year of follow up | Nodule size ([5]; after 2 weeks of application): decreased remarkably in size | Biopsy histology ([5]; biopsy just before surgery): scarring in the central cleared area and some residual tumor with marked inflammation in the peripheral inflamed rim | Lesion course in the interim before surgery ([5]; interim before surgery): continued to improve in the interim, developing a central cleared area | Side effects ([5]; person, 2.5 cm nodule left cheek, after 2 weeks of application): erythema and crusting | Re-biopsy histology ([5]; re-biopsy after 2 weeks of application): persistent hemangioendothelioma but with mild atypia and marked inflammation and fibrosis | Surgical specimen histology ([5]; surgical specimen): only scarring with no evidence of tumor | IFN-α (IFN-α and TNF-α [6]): local increase | TNF-α (IFN-α and TNF-α [6]): local increase | Side effects / local reaction at treated areas [7]: strong reaction at the treated areas with pruritus, burning and intermittently mild pain; also recorded: erythematous, edematous plaques that were well defined and did not extend onto uninvolved skin | Side effects / local reaction at treated areas ([7]; listed as Imiquimod): minimal side-effects | Disappearance of LS lesions [7]: complete disappearance of the lesions | Disappearance of LS lesions ([7]; listed as Imiquimod): all the lesions of LS that were treated and developed the reaction had disappeared leaving no signs of any cutaneous change
